Laboratory results: article doi:10.1101/2025.01.28.635346v1 (bioRxiv, 2025)
Bridge positions count the residues as written; N and C are the ends. Side chains are listed from the residue outwards. Peptide text beside a SMILES is read from it. * marks the point of attachment. Butanoyl(4-(4-I-phenyl)) = O=C(CCCc1ccc(I)cc1)*; PEG2 = NCCOCCOCCC(=O)O

Experiment: Tissue distribution in female Balb/c mice
Assay type: in vivo, mouse
Conditions: for Brain concentration / Colon concentration / Kidneys concentration / Liver concentration / Mammary concentration / Ovaries concentration / Plasma Concentration / Lungs concentration: Balb/c mice
[1] = 3 hr, Mouse 1 (individual animal)
[2] = 3 hr, Mouse 2 (individual animal)
[3] = 3 hr, Mouse 3 (individual animal)
[4] = 8 hr, Mouse 1 (individual animal)
[5] = 8 hr, Mouse 2 (individual animal)
[6] = 8 hr, Mouse 3 (individual animal)
[7] = female, Balb/c, mouse, brain, ip, 30 mg/kg
[8] = female, Balb/c, mouse, breast tissue including mammary gland, ip, 30 mg/kg
[9] = female, Balb/c, mouse, colon, ip, 30 mg/kg
[10] = female, Balb/c, mouse, kidney, ip, 30 mg/kg
[11] = female, Balb/c, mouse, kidneys, ip, 30 mg/kg
[12] = female, Balb/c, mouse, liver, ip, 30 mg/kg
[13] = female, Balb/c, mouse, lungs, ip, 30 mg/kg
[14] = female, Balb/c, mouse, ovaries, ip, 30 mg/kg
[15] = female, Balb/c, mouse, plasma, ip, 30 mg/kg

CC[C@H](C)[C@H](NC(=O)[C@H](CC(C)C)NC(=O)[C@H](CC(=O)O)NC(=O)CNC(=O)[C@H](CCCNC(=N)N)NC(=O)[C@@H](NC(=O)[C@H](Cc1ccccc1)NC(=O)[C@H](Cc1ccc(O)cc1)NC(=O)[C@@H]1CCC(=O)NCC(=O)NCC(=O)N[C@@H](CCCNC(=N)N)C(=O)NCC(=O)N[C@@H](Cc2c[nH]cn2)C(=O)N[C@@H](C(C)C)C(=O)N2CCC[C@H]2C(=O)N1)C(C)C)C(=O)N[C@@H](CO)C(=O)N[C@@H](Cc1ccccc1)C(=O)N[C@@H](Cc1ccc(O)cc1)C(=O)N[C@@H](CCCCNC(=O)CCOCCOCCNC(=O)CCCc1ccc(I)cc1)C(=O)O [lassotide 47] (GGRGHVPEYFVRGDLISFYK([PEG2-Butanoyl(4-(4-I-phenyl))])-OH; lactam N-8)
Brain concentration [1]: 985 ng/g | Colon concentration [1]: 6100 ng/g | Kidneys concentration [1]: 11600 ng/g | Liver concentration [1]: 4430 ng/g | Mammary concentration [1]: 21700 ng/g | Ovaries concentration [1]: 27800 ng/g | Plasma Concentration [1]: 192 µg/mL | Brain concentration [2]: 968 ng/g | Colon concentration [2]: 6010 ng/g | Kidneys concentration [2]: 11500 ng/g | Liver concentration [2]: 4000 ng/g | Lungs concentration [2]: 32400 ng/g | Mammary concentration [2]: 18900 ng/g | Ovaries concentration [2]: 25700 ng/g | Plasma Concentration [2]: 168 µg/mL | Brain concentration [3]: 756 ng/g | Colon concentration [3]: 4370 ng/g | Kidneys concentration [3]: 9960 ng/g | Liver concentration [3]: 3250 ng/g | Lungs concentration [3]: 36100 ng/g | Mammary concentration [3]: 14800 ng/g | Ovaries concentration [3]: 20800 ng/g | Plasma Concentration [3]: 160 µg/mL | Brain concentration [4]: 974 ng/g | Colon concentration [4]: 2940 ng/g | Kidneys concentration [4]: 12200 ng/g | Liver concentration [4]: 4440 ng/g | Lungs concentration [4]: 41500 ng/g | Mammary concentration [4]: 12200 ng/g | Ovaries concentration [4]: 18700 ng/g | Plasma Concentration [4]: 117 µg/mL | Brain concentration [5]: 617 ng/g | Colon concentration [5]: 2460 ng/g | Kidneys concentration [5]: 8480 ng/g | Liver concentration [5]: 2430 ng/g | Lungs concentration [5]: 31300 ng/g | Mammary concentration [5]: 8100 ng/g | Ovaries concentration [5]: 14700 ng/g | Plasma Concentration [5]: 106 µg/mL | Brain concentration [6]: 406 ng/g | Colon concentration [6]: 2190 ng/g | Kidneys concentration [6]: 6640 ng/g | Liver concentration [6]: 2230 ng/g | Lungs concentration [6]: 16000 ng/g | Mammary concentration [6]: 5390 ng/g | Ovaries concentration [6]: 8870 ng/g | Plasma Concentration [6]: 77 µg/mL | tissue level at time at 3 h [7]: 903 ng/g | tissue level at time at 8 h [7]: 666 ng/g | tissue level at time at 3 h [8]: 18500 ng/g | tissue level at time at 8 h [8]: 8560 ng/g | tissue level at time at 3 h [9]: 5490 ng/g | tissue level at time at 8 h [9]: 2530 ng/g | tissue level at time at 3 h [10]: 11000 ng/g | tissue level at time at 8 h [10]: 9110 ng/g | tissue level at time at 3 h [11]: 11000 ng/g | tissue level at time at 8 h [11]: 9110 ng/g | tissue level at time at 3 h [12]: 3890 ng/g | tissue level at time at 8 h [12]: 3030 ng/g | tissue level at time at 3 h [13]: 57200 ng/g | tissue level at time at 8 h [13]: 29600 ng/g | tissue level at time at 3 h [14]: 24800 ng/g | tissue level at time at 8 h [14]: 14100 ng/g | level at 3 h [15]: 173 µg/mL | level at 8 h [15]: 100 µg/mL
